Source: patent US8012944B2, “Method for treating cancer using IAP antisense oligomer and chemotherapeutic agent” (Pharmascience Inc., priority 2003, dated 2011)

How the values were obtained:
Type in all cases: cell-based, human
HIAP1 mRNA [1] = assay: HIAP1 mRNA in SF295 cells under cycloheximide induction (TaqMan)
Procedure: (§1) The effect of HIAP1 antisense nucleobase oligomers on HIAP1 protein and mRNA expression was also examined in cells induced to express HIAP1. SF295 cells were transfected with oligonucleotides, or were mock transfected. The transfected cells were then treated with 10 μg/ml cycloheximide for 24 hours to induce 70 kDa HIAP1 mRNA and protein. Protein levels were measured by western blot analysis with an anti-HIAP1 polyclonal antibody, and normalized against actin protein in a re-probing of the same blots. The densitometric scan results were plotted against the mock results (set at 100%) in FIG. 22B. […] The transfection process itself (e.g., mock or scrambled survivin) induces HIAP1 protein compared to the untreated sample as shown on the western immunoblot.
Controls for this experiment were three oligonucleotides for APO 2: one scrambled sequence (same base composition but random order, 5′-AAGGGCGGCGGAGTGAGAC-3′; SEQ ID NO: 297), one reverse polarity (same base composition, same sequential order but in the opposite direction, 5′-AGAGGACGGAGTCGGAGGC-3′; SEQ ID NO: 298), and one mismatch sequence (containing four base mismatches out of 19 bases, 5′-CGGAGCGTGAGGATGGAGA-3′; SEQ ID NO: 299).

HIAP1 protein = HIAP1 protein in cycloheximide-induced SF295 cells (western blot)
Text: HIAP1 was detected on a western immunoblot using an affinity-purified anti-rat HIAP1 rabbit polyclonal antibody as a primary antibody and was detected by ECL (Amersham) on X-ray film with a secondary horseradish-peroxidase-conjugated anti-rabbit Ig antibody and a chemiluminescent substrate. The anti-HIAP1 polyclonal antibody is raised against a GST-fusion of the rat HIAP1. This antibody cross-reacts with both human and murine HIAP1 and HIAP2.
as §1

survivin protein = assay: Survivin protein after APO 2 treatment; conditions: after oligo treatment
HIAP1 mRNA [2] = assay: HIAP1 mRNA in SF295 cells, basal conditions (TaqMan); set-up: decrease of HIAP1 mRNA compared to mock or scrambled survivin control: concentration or dose not given beside the values; conditions: for HIAP1 mRNA levels (in words): SF295 cells (FIG. 21)
Summary of the method: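 SF295 glioblastoma cells transfected with antisense oligonucleotides via lipofectin under basal conditions; RNA isolated 6 h post-transfection. HIAP1 mRNA quantified by TaqMan RT-PCR using the comparative Ct method, normalized to GAPDH and expressed relative to scrambled survivin oligonucleotide set as 1.0.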

SF295 cells = assay: Cytotoxicity of HIAP1 oligonucleotides measured by total protein; conditions: FIG. 23
Text: FIG. 23 is a graph showing the effects of HIAP1 oligonucleotides on cytotoxicity, as measured by total protein.

Row | Sequence | effect on HIAP1 mRNA (and protein) under CHX induction (in words) (HIAP1 mRNA [1]) | decrease in HIAP1 mRNA compared to scrambled survivin control (HIAP1 mRNA [1]; cycloheximide induction conditions, 6 hours after transfection) [%] | activity in the HIAP1 protein and mRNA assays (HIAP1 protein) | loss of survivin protein (specificity) (survivin protein) | HIAP1 mRNA levels (in words) (HIAP1 mRNA [2]) | decrease of HIAP1 mRNA compared to mock or scrambled survivin control (HIAP1 mRNA [2]; SF295 cells, six hours after transfection) [%] | toxicity seen as general decrease in total protein (SF295 cells)
1 | CGGAGGCTGAGGCAGGAGA (CGGAGGCNGAGGCAGGAGA; chemistry not given here) [APO 2] | greatest block of CHX-induced upregulation of HIAP1 mRNA and protein | 50 | high activity, or had significant activity in both the protein and mRNA assays | did not see any loss of survivin protein | did not cause a stress-induced increase in HIAP1 mRNA | ~50 | 
2 | TCTCACAGACGTTGGGCTT (chemistry not given here) [APO 6] |  |  |  |  | stress-induced increase in HIAP1 mRNA |  | evidence of toxicity
